According to US6074626A (Molecular Radiation Management, Inc., priority 1999, dated 2000):
Several values for one entry are separate records, joined by “and”; a condition that tells them apart may be missing. Equal entries are not always repeated.

Assays:
hepatoma = conditions: given systemically; cited from earlier work
hepatocellular carcinoma [1] = conditions: intravenous, cited from earlier work
[2] = system: non-resectable hepatocellular carcinoma; test: Remission and survival of hepatoma patients treated monthly with hepatic artery infusion (HAI) of cisplatinum at 50 mg/m^2; type: in vivo; parameters: median survival, increase over the six months reported from other regimens: unit not given here; conditions: for survival: one patient
Excerpt: Patient population: All patients were required to have histologic documentation of hepatocellular carcinoma. Pre-treatment evaluation included a complete medical history and physical examination, hepatitis virus status and complete blood cell counts, biochemical survey including lactate dehydrogenase, alkaline phosphatase, BUN, creatinine, bilirubin, PT/PTT and alpha fetoprotein (AFP) level; radiographic studies including CT scans of the chest, abdomen and pelvis with volumetric reconstruction of both tumor and normal liver volumes allowed determination of percentage of liver replacement by tumor. The presence of ascites was determined using both clinical examination and imaging results. Excluded were patients with a creatinine >1.5 and/or BUN >25. All patients gave written informed consent. Prior to referral to our facility 23 patients (34%) had multiple chemotherapeutic regimens. Of the 67 patients, 44 (65%) were treated with external beam radiation to the involved liver as a component of the prescribed treatment program. Assessment of liver function was done using the modified Childs-Pugh classification (41). The American Joint Committee on Cancer staging system was used to stage tumor extent in all patients (42). […]
Intrahepatic arterial chemotherapy: The infusion was performed either with a temporary percutaneous femoral or axillary artery catheter or implanted port or pump. On the day prior to treatment the patients were instructed to take 1 to 2 liters of fluid orally. On admission, 1 liter of 5% dextrose in normal saline with 20 meq potassium was given intravenously. Utilizing a femoral or axillary artery transcutaneous approach an arteriogram of the common hepatic artery was done. Next, cisplatinum 50 mg/m^2 was dissolved to a concentration of 1 mg per ml of sterile water. The solution was then infused intra-arterially at a rate of 1 mg/minute. The chemotherapy was always infused into the most distal artery feeding the main mass of the tumor. Appropriate antiemetic therapy, generally Odansetron 0.15 mg/kg IV and dexamethasone 20 mg IV was administered before the cisplatinum infusion and as needed after the infusion. On discharge home patients were given an oral antiemetic regimen of Lorazepam 1 mg, every six hours, or Odansetron 8 mg every twelve hours, as needed and Dexamethasone 4 mg every six hours for one day. Patients continued monthly HAI of cisplatinum until evidence of progressive disease or death. All patients were assessable for response.
Assessment of response: Routine clinical examinations and laboratory testing were performed at monthly intervals or as clinically indicated. The defined improvements on a minimum of two CT scans and/or AFP titers obtained at least two months apart were required to delineate response. Tumor volumes were quantified by computed tomography scan volumetric analysis of the liver as previously reported (20,43). Complete remission was the disappearance of all clinical evidence of tumor for a minimum of one month. Partial remission was a decrease of 50% or more in the volume of all measurable lesions measured on contrast-enhanced CT scan or a ≥50% reduction in AFP titer. Stable disease was a <50% decrease or <25% increase in tumor volume or AFP titer. Progressive disease was the increase of at least 25% in the tumor volume of all measurable lesions on CT scan or by AFP titer. Toxicity was assessed monthly during HAI therapy using RTOG criteria (44) with scores ≥3 considered to be major toxicities.
Statistical methods: The log-rank procedure was used to test for any statistical differences in survival distribution between patient populations (47). Survival curves were generated by the Kaplan Meier technique (48). Each survival curve was plotted as a step function of the Kaplan-Meier estimates.
Intra-arterial hepatic infusions were given to 67 patients with non-resectable hepatocellular carcinoma treated between July 1991 and September 1997. […]

[3] = system: non-resectable hepatocellular carcinoma; test: as above; type: in vivo; conditions: intra-arterial, 50 mg/m^2, 28 patients
tumor (hepatoma) = test: Scintigraphic scans of 195^m cisplatin given intravenously and intra-arterially to the same patient; type: in vivo
Excerpt: When the drug was given intravenously,less than five percent deposited in the tumor. When the drug was given intra-arterially, 35 to 40 percent of the drug deposited in the tumor, as witnessed by scintigraphic scans.
(§1) Because of a high response rate to intra-arterial cisplatinum compared to intravenous delivery a study was done to estimate whether there was a differential tumor uptake of cisplatinum. Patients were given similar tracer doses of ^195m cisplatinum, first intravenously then by HAI. It was estimated that the maximum dose for this diagnostic quantitative trial would be 1.0 mCi, which would yield an estimated absorbed dose no greater than 5 centigray to the kidneys and therefore not cause toxicity. […] FIG. 6 is an example of their gamma camera study done the same day following the intra-arterial injection of 1.0 mCi ^195 Pt cisplatinum. […] Table 4 summarizes the data for this diagnostic quantitative trial following HAI of ^195m cisplatinum. As shown, the mean tumor uptake was 48.4% (range 34.2-55.4%) of the given activity and the mean ratio of tumor-to-liver uptake was 2.1 (range 1.6-2.4).

viable hepatoma = test: Diagnostic quantitation of tumor uptake by ^195m cisplatinum gamma camera imaging after HAI; type: in vivo, patients
Experimental: (§2) The rationale for HAI cisplatinum was evaluated in a diagnostic quantitative study trial utilizing radioactive ^195m cisplatinum. The radiopharmaceutical was prepared using a ^194 Pt target and irradiation from neutron flux in a fission reactor (45,46). […] The study was approved by the institutional review board and radiation safety committee of Cooper Hospital University Medical Center for use of up to a 1.0 mCi dose of ^195m cisplatinum, delivered intra-arterially. Institutional Review Board approved informed consent documents were signed by all patients participating in this study.
Platinum-195m is a radionuclide with a physical half-life of 4.02 days. As it decays by isomeric transition it emits several photons imageable by scintillation camera. Six patients were imaged thirty minutes after administration of ^195m cisplatinum (252-1011 μCi) using a dual-head gamma camera system equipped with low-energy parallel-hole collimators. The camera was peaked at 76 keV with an energy window setting of 37%. […] Tumors and normal liver containing Pt-195m uptake were identified and appropriate regions of interest drawn. The method used for quantitation of the radioactivity utilized conjugate view images (180° opposed anterior and posterior planar images). Prior to patient studies a phantom study was performed under fixed geometry to determine a correction factor for patient attenuation and scatter and a system calibration factor. The phantom consisted of a simulated tumor containing 277.5 μCi of Pt-195m in an abdominal phantom filled with water to simulate patient attenuation and scatter. […] The activities determined from the conjugate view counting technique were divided by the administered activity and multiplied by 100 to obtain the percent tumor uptakes. Tumor-to-normal liver ratios were determined from the various regions of interest.
as §1

[4] = Safety of ^195m cisplatinum given by HAI; type: in vivo; conditions: six patients
Experimental: as §2
as §1, with “As shown, the mean tumor uptake was 48.4% (range 34.2-55.4%) of the given activity and the mean ratio of tumor-to-liver uptake was 2.1 (range 1.6-2.4).” left out

hepatocellular carcinoma [5] = conditions: subcutaneously; untreated controls 4 months; cited from earlier work
[6] = HAI after failing previous therapy, disease confined to liver, AFP (+)
[7] = HAI after failing previous therapy, disease confined to liver, AFP (-)
[8] = HAI, per patient (b206-b211 = patients 1-6), thirty minutes after administration
[9] = intra-arterial, tracer quantities

SMILES: O=c1[nH]cc(F)c(=O)[nH]1 [5-FU, 5-fluorouracil]
- effectiveness (hepatoma): inconsistently effective

SMILES: N.N.[Cl][Pt][Cl] [cisplatin, cisdiamminedichloroplatinum]
- response rate (hepatocellular carcinoma [1]): less than five
- response rate (in words) (hepatocellular carcinoma [1]; single drug): relatively poor response rate
- median survival ([2]; AFP positive patients, as compared with octreotide study): 12 months
- alive at one year [2, 6]: 56%
- median survival [2, 6]: 17.3 months
- alive at one year [2, 7]: 75%
- median survival [2, 7]: 46.3 months
- median survival ([2]; HAI after prior treatment failure, extra-hepatic metastases, AFP (+)/elevated): 8.9 months
- median survival ([2]; HAI after prior treatment failure, extra-hepatic metastases, AFP (-)/not elevated): 11.1 months
- median survival ([2]; HAI as primary therapy, disease confined to liver, AFP (+)): 12.0 months
- median survival ([2]; HAI as primary therapy, disease confined to liver, AFP (-)): 17.5 months
- median survival ([2]; HAI as primary therapy, extra-hepatic metastases, AFP (+)/elevated): 7.1 months
- survival ([2]; HAI as primary therapy, extra-hepatic metastases, AFP (-)/not elevated, listed as HAI-CDDP): 21.0 months
- survival ([2]; HAI as primary therapy, extra-hepatic metastases, AFP (-)/not elevated, listed as cisplatinum): 21 months
- long term remission ([2]; HAI, 50 mg/m^2): long term remission can be obtained
- median survival ([2]; HAI, AFP (+), all patients): 10.3 months
- overall survival at one year ([2]; HAI, AFP (+), all patients): 45%
- overall survival at one year ([2]; HAI, AFP (-), all patients): 59%
- median survival ([2]; HAI, AFP (-), all patients, listed as cisplatinum): 21.8 months and 21 months
- median survival ([2]; HAI, chronic Hepatitis B or C, regardless of AFP status): 10.7 months
- significance of overall survival difference AFP (+) vs AFP (-) ([2]; HAI, log rank): significantly different
- overall median survival ([2]; HAI, present study group): 10.3 months
- response rate ([2]; arterial route): ≥ 50%
- response ([2]; intra-arterial, 67 patients): 50%
- remission ([2]; intra-arterial, 95 patients combined): 50%
- median survival, increase over the six months reported from other regimens ([2]; worst group of hepatomas (AFP+ positive), intra-arterial): one
- remission [3]: 50%
- binding on the hepatoma, persistence (tumor (hepatoma); intra-arterial): apparently stays there for a persistent period of time

SMILES: CO[C@@]12[C@H](COC(N)=O)C3=C(C(=O)C(C)=C(N)C3=O)N1C[C@@H]1N[C@@H]12 [mitomycin]
- effectiveness (hepatoma): inconsistently effective

SMILES: [NH2][195Pt]([NH2])([Cl])[Cl] [^195m cisplatinum]
- concentration in viable hepatoma (imaging) (viable hepatoma; HAI): hyperconcentration
- Tumor uptake (viable hepatoma; [8]): 55.4% and 49.6% and 52.8% and 48.3% and 34.2% and 50.3%
- Tumor-to-liver uptake ratio (viable hepatoma; [8]): 1.6 and 2.3 and 2.4 and 2.1 and 2.0
- Tumor activity (viable hepatoma; HAI, per patient (b206-b211 = patients 1-6), thirty minutes after administration, administered 252-1011 μCi): 140 μCi and 501 μCi and 528 μCi and 489 μCi and 343 μCi and 503 μCi
- mean ratio of tumor-to-liver uptake (viable hepatoma; HAI, six patients): 2.1
- mean tumor uptake of the given activity (viable hepatoma; HAI, six patients): 48.4%
- range of ratio of tumor-to-liver uptake (viable hepatoma; HAI, six patients): 1.6-2.4
- range of tumor uptake of the given activity (viable hepatoma; HAI, six patients): 34.2-55.4%
- exposure of the tumor vs intravenous route (viable hepatoma; intra-arterial, tracer amounts): selectively exposes the tumor to higher drug levels than can be achieved by the intravenous route
- kinetics (viable hepatoma; [9]): first-pass kinetics
- selective tumor uptake (viable hepatoma; [9]): 34-55 % of administered dose
- drug deposited in the tumor (tumor (hepatoma); intravenous): less than five
- adverse events [4]: no adverse events occurred

SMILES: C[C@@H](O)[C@@H]1NC(=O)[C@H](CCCCN)NC(=O)[C@@H](Cc2c[nH]c3ccccc23)NC(=O)[C@H](Cc2ccccc2)NC(=O)[C@@H](NC(=O)[C@H](N)Cc2ccccc2)CSSC[C@@H](C(=O)N[C@H](CO)[C@@H](C)O)NC1=O [octreotide]
- median survival (hepatocellular carcinoma [5]): 13 months
